Source: the supplement of paper PMC4862054
Where “and” joins values, the source holds several entries; their conditions need not be identical. Identical values can stand only once.

What was measured:
Assay in all cases: normalised viability (% of control), CellTiter-Blue; higher = more viable cells (about 100 = DMSO control)
Conditions in all cases: incubation time: 72 h
CAL-148 [1] = system: CAL-148
Method: (§1)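 DSRT, CellTiter-Blue viability, 72 h incubation. Signal is normalised to DMSO and benzethonium chloride controls. Value is the normalised response at dose 8.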

CAL-51 [2] = system: CAL-51
Method: as §1

CAL-85-1 [3] = system: CAL-85-1
Method: as §1

DU-4475 [4] = system: DU-4475
Method: as §1

HDQ-P1 [5] = system: HDQ-P1
Method: as §1

MDA-MB-453 [6] = system: MDA-MB-453
Method: as §1

CAL-148 [7] = system: CAL-148; remark: listed apart in the source
Method: (§2)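 DSRT, CellTiter-Blue viability, 72 h incubation. Signal is normalised to DMSO and benzethonium chloride controls. Value is the normalised response at dose 6.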

CAL-51 [8] = system: CAL-51; remark: listed apart in the source
Method: as §2

CAL-85-1 [9] = system: CAL-85-1; remark: listed apart in the source
Method: as §2

DU-4475 [10] = system: DU-4475; remark: listed apart in the source
Method: as §2

MDA-MB-453 [11] = system: MDA-MB-453; remark: listed apart in the source
Method: as §2

HDQ-P1 [12] = system: HDQ-P1; remark: listed apart in the source
Method: as §2

Row | Structure (SMILES) | normalised viability (CAL-148 [1]) | normalised viability (CAL-51 [2]) | normalised viability (CAL-85-1 [3]) | normalised viability (DU-4475 [4]) | normalised viability (HDQ-P1 [5]) | normalised viability (MDA-MB-453 [6]) | normalised viability (CAL-148 [7]) | normalised viability (CAL-51 [8]) | normalised viability (CAL-85-1 [9]) | normalised viability (DU-4475 [10]) | normalised viability (MDA-MB-453 [11]) | normalised viability (HDQ-P1 [12])
1 | C[C@@H]1C=C2C(=O)O[C@@H]3CC[C@H](C1)[C@]23O [Galiellalactone] (15000 nM) | 52.8% | 124% | 14.1% | 126% | 75.3% | 20.3% |  |  |  |  |  | 
2 | CS(=O)(=O)CCNCc1ccc(-c2ccc3ncnc(Nc4ccc(OCc5cccc(F)c5)c(Cl)c4)c3c2)o1 [Lapatinib] (300 nM) |  |  |  |  |  |  | 87.1% and 91.6% | 112% and 98.5% | 89.5% and 86.2% | 87.4% and 108% | 42.9% and 43.1% | 
3 | COc1cc(Nc2ncc(F)c(Nc3ccc4c(n3)NC(=O)C(C)(C)O4)n2)cc(OC)c1OC [R406] (3000 nM) | 105% | 109% | 67.9% | 92.6% | 98.3% | 110% |  |  |  |  |  | 
4 | CC(C)C[C@H](NC(=O)[C@H](Cc1ccccc1)NC(=O)c1cnccn1)B(O)O [Bortezomib] (300 nM) | 9.74% | 1.35% | 2.25% | 0.52% | 1.48% | 19.3% |  |  |  |  |  | 
5 | COC1=C2C[C@@H](C)C[C@H](OC)[C@H](O)[C@@H](C)/C=C(\C)[C@H](OC(N)=O)[C@@H](OC)/C=C\C=C(/C)C(=O)NC(=CC1=O)C2=O [Geldanamycin] (300 nM) |  |  |  |  |  |  | 28.9% | 74.5% | 47.7% | 0.05% | 6.01% | 46.5%
6 | CC(=O)O[C@H]1C(=O)[C@@]2(C)[C@H]([C@H](OC(=O)c3ccccc3)[C@]3(O)C[C@H](OC(=O)[C@H](O)[C@@H](NC(=O)c4ccccc4)c4ccccc4)C(C)=C1C3(C)C)[C@]1(OC(C)=O)CO[C@@H]1C[C@@H]2O [Paclitaxel] (300 nM) | 16.1% | 20.6% | 25.5% | 16.9% | 26.6% | 24.7% |  |  |  |  |  | 
7 | COc1ncc(-c2ccc3nccc(-c4ccnnc4)c3c2)cc1NS(=O)(=O)c1ccc(F)cc1F (30 nM) |  |  |  |  |  |  | 43.7% | 33.1% | 50.4% | 63.6% | 12.1% | 30.4%
8 | Cn1c(=O)c(F)c(Nc2ccc(I)cc2F)c2c(=O)n(C[C@@H](O)CO)cnc21 [TAK-733] (300 nM) | 77.9% | 76.7% | 53.5% | 0.88% | 63.6% | 70.8% |  |  |  |  |  | 
9 | CC[C@@]1(O)C(=O)OCc2c1cc1n(c2=O)Cc2cc3ccccc3nc2-1 [Camptothecin] (1500 nM) | 1.27% | 4.85% | 25.1% | 0.88% | 31.6% | 21.5% |  |  |  |  |  | 
10 | COC1=C2C[C@@H](C)C[C@H](OC)[C@H](O)[C@@H](C)/C=C(\C)[C@H](OC(N)=O)[C@@H](OC)/C=C\C=C(/C)C(=O)NC(=CC1=O)C2=O [Geldanamycin] (3000 nM) | 10.8% | 8.15% | 11.6% | -0.3% | 16.7% | 8.03% |  |  |  |  |  | 
11 | Cn1c(=O)c(F)c(Nc2ccc(I)cc2F)c2c(=O)n(C[C@@H](O)CO)cnc21 [TAK-733] (30 nM) |  |  |  |  |  |  | 98.7% | 89.7% | 84.5% | 1.81% | 112% | 77.7%
12 | O=c1[nH]cc(F)c(=O)[nH]1 [Fluorouracil] (3000 nM) | 65.6% | 87.9% | 62.6% | 81.6% | 87.8% | 85.7% |  |  |  |  |  | 
13 | COc1cccc2c1C(=O)c1c(O)c3c(c(O)c1C2=O)C[C@@](O)(C(C)=O)C[C@@H]3O[C@H]1C[C@H](N)[C@H](O)[C@H](C)O1 [Daunorubicin] (30 nM) |  |  |  |  |  |  | 59.5% | 54.5% | 94.6% | 64.7% | 93.7% | 74.9%
14 | CCOc1cc2ncc(C#N)c(Nc3ccc(OCc4ccccn4)c(Cl)c3)c2cc1NC(=O)/C=C/CN(C)C [Neratinib] (30 nM) |  |  |  |  |  |  | 85.9% | 96% | 107% | 100% | 81.2% | 94.3%
15 | COc1ncc(-c2ccc3nccc(-c4ccnnc4)c3c2)cc1NS(=O)(=O)c1ccc(F)cc1F (300 nM) | 6.61% | 6.4% | 17.9% | 37.8% | 21.2% | 4.39% |  |  |  |  |  | 
16 | O=C(c1ccc(OCCN2CCCCC2)cc1)c1c(-c2ccc(O)cc2)sc2cc(O)ccc12 [Raloxifene] (300 nM) |  |  |  |  |  |  | 102% | 100% | 105% | 114% | 102% | 84.6%
17 | COc1c(C)cnc(Cn2cnc3c(Cl)nc(N)nc32)c1C [BIIB021] (300 nM) |  |  |  |  |  |  | 29.5% | 57.6% | 56.8% | 0.39% | 17.3% | 60.8%
18 | O=P(O)(NCCCl)NCCCl [Ifosfamide mustard] (300 nM) |  |  |  |  |  |  | 110% | 100% | 98% | 92.7% | 114% | 54%
19 | CCCC(CCC)C(=O)O [Valproic acid] (300 nM) |  |  |  |  |  |  | 103% | 103% | 90% | 83.7% | 103% | 112%
20 | CS(=O)(=O)OCCCCOS(C)(=O)=O [Busulfan] (30000 nM) | 107% | 100% | 96.5% | 91% | 102% | 117% |  |  |  |  |  | 
